Laboratory results: US12129237B2, “Substituted diaminocarboxamide and diaminocarbonitrile pyrimidines, compositions thereof, and methods of treatment therewith” (SIGNAL PHARMACEUTICALS, LLC, priority 2011, dated 2024)

What follows are compounds tested against T1, JNK1 (Homo sapiens, UniProt P45983) (assay: JNK1 biochemical assays (one or more of: time resolved fluorescence, Z'-LYTE Cascade, radioactive)). Conditions: one or more of the JNK1 biochemical assays; read-out: Act. Level (JNK1 IC50 activity level).
T1 construct: purchased Carna Biosciences
T1 sequence (P45983 whole entry): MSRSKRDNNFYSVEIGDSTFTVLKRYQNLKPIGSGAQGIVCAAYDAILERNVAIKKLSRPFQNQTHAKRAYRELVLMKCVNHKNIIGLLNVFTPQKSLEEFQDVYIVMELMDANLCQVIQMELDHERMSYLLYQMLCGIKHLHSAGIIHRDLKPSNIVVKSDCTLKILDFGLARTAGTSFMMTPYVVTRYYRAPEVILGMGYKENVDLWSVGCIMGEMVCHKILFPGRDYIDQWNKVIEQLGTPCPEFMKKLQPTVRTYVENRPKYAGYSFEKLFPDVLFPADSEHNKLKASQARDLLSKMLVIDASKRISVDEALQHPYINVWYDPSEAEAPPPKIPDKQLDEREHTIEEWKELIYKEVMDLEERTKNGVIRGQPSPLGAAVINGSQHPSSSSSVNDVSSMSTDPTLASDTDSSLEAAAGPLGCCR

| Compound | IC50 [nM] |
| --- | --- |
| CC[C@H](Nc1nc(N[C@H]2CC[C@H](OC)CC2)ncc1C(N)=O)C1CC1 [Example 372, 4-((S)-1-cyclopropylpropylamino)-2-((1r,4S)-4-methoxycyclohexylamino)pyrimidine-5-carboxamide] | < 200 |
| CCO[C@H]1CC[C@H](Nc2ncc(C(N)=O)c(N[C@@H](CC)C3CC3)n2)CC1 [Example 373, 4-((S)-1-cyclopropylpropylamino)-2-((1r,4S)-4-ethoxycyclohexylamino)pyrimidine-5-carboxamide] | < 200 |
| CC[C@@H](Nc1nc(N[C@H]2CC[C@H](OC)CC2)ncc1C(N)=O)C1CC1 [Example 374, 4-((R)-1-cyclopropylpropylamino)-2-((1r,4R)-4-methoxycyclohexylamino)pyrimidine-5-carboxamide] | < 200 |
| CCO[C@H]1CC[C@H](Nc2ncc(C(N)=O)c(N[C@H](CC)C3CC3)n2)CC1 [Example 375, 4-((R)-1-cyclopropylpropylamino)-2-((1r,4R)-4-ethoxycyclohexylamino)pyrimidine-5-carboxamide] | < 200 |
| CC[C@H](Nc1nc(N[C@H]2CC[C@H](O)CC2)ncc1C(N)=O)C1CC1 [Example 384, 4-((S)-1-cyclopropylpropylamino)-2-((1r,4S)-4-hydroxycyclohexylamino)pyrimidine-5-carboxamide] | < 200 |
| CC[C@@H](Nc1nc(N[C@H]2CC[C@H](O)CC2)ncc1C(N)=O)C1CC1 [Example 385, 4-((R)-1-cyclopropylpropylamino)-2-((1r,4R)-4-hydroxycyclohexylamino)pyrimidine-5-carboxamide] | < 200 |
| CC12CC(Nc3nc(N[C@H]4CC[C@H](O)CC4)ncc3C(N)=O)(C1)C2 [Example 393, 2-((1r,4r)-4-hydroxycyclohexylamino)-4-(3-methylbicyclo[1.1.1]pentan-1-ylamino)pyrimidine-5-carboxamide] | < 200 |
| C[C@@H]1CC[C@@H](Nc2nc(N[C@H](C)C3CC3)ncc2C(N)=O)C[C@H]1O [Example 394, 2-((R)-1-cyclopropylethylamino)-4-((1R,3R,4R)-3-hydroxy-4-methylcyclohexylamino)pyrimidine-5-carboxamide] | < 200 |
| C[C@H](Nc1ncc(C(N)=O)c(N[C@@H]2CC[C@@H](C)[C@H](O)C2)n1)C1CC1 [Example 395, 2-((S)-1-cyclopropylethylamino)-4-((1R,3R,4R)-3-hydroxy-4-methylcyclohexylamino)pyrimidine-5-carboxamide] | < 200 |
| C[C@@H]1CC[C@@H](Nc2nc(NC34CC(C)(C3)C4)ncc2C(N)=O)C[C@H]1O [Example 396, 4-((1R,3R,4R)-3-hydroxy-4-methylcyclohexylamino)-2-(3-methylbicyclo[1.1.1]pentan-1-ylamino)pyrimidine-5-carboxamide] | < 200 |
| CC1(Nc2nc(N[C@H]3CC[C@H](OC4CC4)CC3)ncc2C(N)=O)CCC1 [Example 400, 2-((1r,4r)-4-cyclopropoxycyclohexylamino)-4-(1-methylcyclobutylamino)pyrimidine-5-carboxamide] | < 200 |
| CCO[C@H]1CC[C@H](Nc2ncc(C(N)=O)c(NC3(C)CCC3)n2)CC1 [Example 401, 2-((1r,4r)-4-ethoxycyclohexylamino)-4-(1-methylcyclobutylamino)pyrimidine-5-carboxamide] | < 200 |
| CO[C@H]1CC[C@H](Nc2ncc(C(N)=O)c(NC3(C)CCC3)n2)CC1 [Example 402] | < 200 |
| CC1(Nc2nc(N[C@H]3CCCOC3)ncc2C(N)=O)CCC1 [Example 403, (S)-4-(1-methylcyclobutylamino)-2-(tetrahydro-2H-pyran-3-ylamino)pyrimidine-5-carboxamide] | < 200 |
| NC(=O)c1cnc(N[C@H]2CCCOC2)nc1NC12CC(C1)C2 [Example 405, (S)-4-(bicyclo[1.1.1]pentan-1-ylamino)-2-(tetrahydro-2H-pyran-3-ylamino)pyrimidine-5-carboxamide] | < 200 |
| NC(=O)c1cnc(NC2CCOCC2)nc1NC12CC(C1)C2 [Example 407, 4-(bicyclo[1.1.1]pentan-1-ylamino)-2-(tetrahydro-2H-pyran-4-ylamino)pyrimidine-5-carboxamide] | < 200 |
| C[C@@H](Nc1nc(NC23CCC(O)(CC2)CC3)ncc1C(N)=O)C1CC1 [Example 408, (R)-4-(1-cyclopropylethylamino)-2-(4-hydroxybicyclo[2.2.2]octan-1-ylamino)pyrimidine-5-carboxamide] | < 200 |
| C[C@@H](Nc1nc(N[C@H]2CC[C@H](OCC(F)(F)F)CC2)ncc1C(N)=O)C1CC1 [Example 409, 4-((R)-1-cyclopropylethylamino)-2-((1r,4R)-4-(2,2,2-trifluoroethoxy)cyclohexylamino)pyrimidine-5-carboxamide] | < 200 |
| C[C@@H](Nc1nc(N[C@H]2CC[C@H](OC3CC3)CC2)ncc1C(N)=O)C1CC1 [Example 410, 2-((1r,4R)-4-cyclopropoxycyclohexylamino)-4-((R)-1-cyclopropylethylamino)pyrimidine-5-carboxamide] | < 200 |

Now from value to compound:

| IC50 [nM] | Compound |
| --- | --- |
| < 200 | CC(C)(C)Nc1nc(N[C@H]2CC[C@@](C)(O)CC2)ncc1C(N)=O [Example 371, 4-(tert-butylamino)-2-((1s,4s)-4-hydroxy-4-methylcyclohexylamino)pyrimidine-5-carboxamide] |
| < 200 | CC(C)(C)Nc1nc(N[C@@H]2CCCC[C@H](O)C2)ncc1C(N)=O [Example 376, 4-(tert-butylamino)-2-((1R,3S)-3-hydroxycycloheptylamino)pyrimidine-5-carboxamide] |
| < 200 | NC(=O)c1cnc(NC2CC2)nc1N[C@@H]1CCCC[C@H](O)C1 [Example 377, 2-(cyclopropylamino)-4-((1R,3S)-3-hydroxycycloheptylamino)pyrimidine-5-carboxamide] |
| < 200 | C[C@]1(O)CCC[C@@H](Nc2nc(NC3CC3)ncc2C(N)=O)C1 [Example 378, 2-(cyclopropylamino)-4-((1R,3S)-3-hydroxy-3-methylcyclohexylamino)pyrimidine-5-carboxamide] |
| < 200 | NC(=O)c1cnc(NC2CC2)nc1N[C@@H]1CCC[C@H](O)C1 [Example 379, 2-(cyclopropylamino)-4-((1R,3S)-3-hydroxycyclohexylamino)pyrimidine-5-carboxamide] |
| < 200 | CC(C)(C)Nc1nc(N[C@@H]2CCC[C@](C)(O)C2)ncc1C(N)=O [Example 380, 4-(tert-butylamino)-2-((1R,3S)-3-hydroxy-3-methylcyclohexylamino)pyrimidine-5-carboxamide] |
| < 200 | CCC(C)(C)Nc1nc(N[C@H]2CC[C@H](OC)CC2)ncc1C(N)=O [Example 381, 2-((1r,4r)-4-methoxycyclohexylamino)-4-(tert-pentylamino)pyrimidine-5-carboxamide] |
| < 200 | CCC(C)(C)Nc1nc(N[C@H]2CC[C@H](OC3CC3)CC2)ncc1C(N)=O [Example 382, 2-((1r,4r)-4-cyclopropoxycyclohexylamino)-4-(tert-pentylamino)pyrimidine-5-carboxamide] |
| < 200 | CC[C@@H](C)Nc1ncc(C(N)=O)c(N[C@@H]2CC[C@@H](C)[C@H](O)C2)n1 [Example 383, 2-(sec-butylamino)-4-((1R,3R,4R)-3-hydroxy-4-methylcyclohexylamino)pyrimidine-5-carboxamide] |
| < 200 | CC(C)(C)Nc1nc(N[C@@H]2CCCC[C@@H](O)C2)ncc1C(N)=O [Example 386, 4-(tert-butylamino)-2-((1R,3R)-3-hydroxycycloheptylamino)pyrimidine-5-carboxamide] |
| < 200 | CC(C)(C)Nc1nc(N[C@H]2CCCC[C@H](O)C2)ncc1C(N)=O [Example 387, 4-(tert-butylamino)-2-((1S,3S)-3-hydroxycycloheptylamino)pyrimidine-5-carboxamide] |
| < 200 | CC(C)(C)Nc1nc(N[C@H]2CCCC[C@@H](O)C2)ncc1C(N)=O [Example 388, 4-(tert-butylamino)-2-((1S,3R)-3-hydroxycycloheptylamino)pyrimidine-5-carboxamide] |
| < 200 | CC(C)(C)Nc1nc(NC2(C)CCOCC2)ncc1C(N)=O [Example 389, 4-(tert-butylamino)-2-(4-methyltetrahydro-2H-pyran-4-ylamino)pyrimidine-5-carboxamide] |
| < 200 | CCCC(C)(C)Nc1nc(N[C@H]2CC[C@H](O)CC2)ncc1C(N)=O [Example 390, 2-((1r,4r)-4-hydroxycyclohexylamino)-4-(2-methylpentan-2-ylamino)pyrimidine-5-carboxamide] |
| < 200 | CCCC(C)(C)Nc1nc(N[C@H]2CC[C@H](OCC)CC2)ncc1C(N)=O [Example 391, 2-((1r,4r)-4-ethoxycyclohexylamino)-4-(2-methylpentan-2-ylamino)pyrimidine-5-carboxamide] |
| < 200 | CCCC(C)(C)Nc1nc(N[C@H]2CC[C@H](OC)CC2)ncc1C(N)=O [Example 392, 2-((1r,4r)-4-methoxycyclohexylamino)-4-(2-methylpentan-2-ylamino)pyrimidine-5-carboxamide] |
| < 200 | C[C@@H]1CC[C@@H](Nc2nc(NC(C)(C)C3CC3)ncc2C(N)=O)C[C@H]1O [Example 397, 2-(2-cyclopropylpropan-2-ylamino)-4-((1R,3R,4R)-3-hydroxy-4-methylcyclohexylamino)pyrimidine-5-carboxamide] |
| < 200 | CC[C@H](C)Nc1ncc(C(N)=O)c(N[C@@H]2CC[C@@H](C)[C@H](O)C2)n1 [Example 398, 2-(sec-butylamino)-4-((1R,3R,4R)-3-hydroxy-4-methylcyclohexylamino)pyrimidine-5-carboxamide] |
| < 200 | CC(C)(C)Nc1nc(NC23CCC(O)(CC2)C3)ncc1C(N)=O [Example 399, 4-(tert-butylamino)-2-(4-hydroxybicyclo[2.2.1]heptan-1-ylamino)pyrimidine-5-carboxamide] |
| < 200 | CC1(Nc2nc(N[C@@H]3CCC[C@H](O)C3)ncc2C(N)=O)CCC1 [Example 404, 2-((1R,3S)-3-hydroxycyclohexylamino)-4-(1-methylcyclobutylamino)pyrimidine-5-carboxamide] |
